Calls of active or inactive are those of the source. No cut-off for these calls is given here. Square brackets hold non-standard residues; d marks the D form. Peptide text beside a SMILES is read from it. * marks the point of attachment. ξ: configuration not given here. Benzoyl(4-TriPhPorphyrinyl) = O=C(c1ccc(-c2c3nc(c(-c4ccccc4)c4ccc([nH]4)c(-c4ccccc4)c4nc(c(-c5ccccc5)c5ccc2[nH]5)C=C4)C=C3)cc1)*; Pyropheophorbide(a) = C=Cc1c(C)c2cc3nc(c4c5[nH]c(cc6nc(cc1[nH]2)C(C)=C6CC)c(C)c5C(=O)C4)[C@@H](CCC(=O)*)[C@@H]3C; X2 = COc1cc(/N=N/c2cc3c4c(c2OCCCCCC(=O)*)CCCN4CCC3)c(OC)cc1/N=N/c1ccc([N+](=O)[O-])cc1; X1 = CCN(CC)c1ccc2nc3ccc(/N=N/c4ccc(N(C)CCCC(=O)*)cc4)cc3[n+](-c3ccccc3)c2c1; ξThr(3R) = C[C@@H](O)C(N)C(=O)O; AEEA = NCCOCCOCC(=O)O
How the values were obtained:
[1] = biological target: MMP14 (Homo sapiens, UniProt P50281); test: Substrate activity at MMP14 (unknown origin) assessed as enzyme-mediated substrate hydrolysis at 100 umol/L after 8 hrs by UV-HPLC method relative to control; assay type: ADME; conditions: read-out: Drug metabolism
[2] = biological target: MMP2 (Homo sapiens, UniProt P08253); test: Substrate activity at MMP2 (unknown origin) assessed as enzyme-mediated substrate hydrolysis at 100 umol/L after 8 hrs by UV-HPLC method relative to control; assay type: ADME; conditions: read-out: Drug metabolism
[3] = In vitro photodynamic activity in ethanol assessed as fluorescence quenching by time-correlated single photon counting method; assay type: functional
[4] = In vitro photodynamic activity in ethanol assessed as decrease in singlet oxygen production by spectrophotometry; assay type: functional; parameters: scale not given: the % may be the effect or the level left
[5] = biological target: MMP9 (Homo sapiens, UniProt P14780); test: Substrate activity at MMP9 (unknown origin) assessed as enzyme-mediated substrate hydrolysis at 100 umol/L after 8 hrs by UV-HPLC method relative to control; assay type: ADME; conditions: read-out: Drug metabolism
[6] = biological target: Matrix metalloproteinase-14 (Mus musculus) (UniProt P53690); test: Substrate activity at MT1-MMP in mouse B16F1 cells assessed as enzyme-mediated substrate cleavage at 100 uM after 24 hrs by HPLC analysis; assay type: cell-based

Sequence of MMP2 (P08253 whole entry): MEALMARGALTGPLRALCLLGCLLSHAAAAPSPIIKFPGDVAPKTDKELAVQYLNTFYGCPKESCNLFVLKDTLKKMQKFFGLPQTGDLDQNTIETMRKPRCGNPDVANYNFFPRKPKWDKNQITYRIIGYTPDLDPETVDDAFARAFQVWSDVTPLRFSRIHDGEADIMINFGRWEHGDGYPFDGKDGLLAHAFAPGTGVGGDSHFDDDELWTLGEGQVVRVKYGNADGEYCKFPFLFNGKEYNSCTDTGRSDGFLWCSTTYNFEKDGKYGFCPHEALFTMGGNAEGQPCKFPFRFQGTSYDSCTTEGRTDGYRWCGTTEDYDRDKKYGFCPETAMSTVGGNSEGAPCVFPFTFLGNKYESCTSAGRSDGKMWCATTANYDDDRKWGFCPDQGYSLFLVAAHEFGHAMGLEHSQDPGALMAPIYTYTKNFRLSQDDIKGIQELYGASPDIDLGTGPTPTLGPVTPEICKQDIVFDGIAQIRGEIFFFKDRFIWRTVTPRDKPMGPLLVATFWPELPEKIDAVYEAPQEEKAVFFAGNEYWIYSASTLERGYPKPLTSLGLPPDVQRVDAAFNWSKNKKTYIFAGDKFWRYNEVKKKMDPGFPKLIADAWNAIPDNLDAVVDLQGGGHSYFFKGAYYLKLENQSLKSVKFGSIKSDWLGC
Sequence of MMP9 (P14780 whole entry): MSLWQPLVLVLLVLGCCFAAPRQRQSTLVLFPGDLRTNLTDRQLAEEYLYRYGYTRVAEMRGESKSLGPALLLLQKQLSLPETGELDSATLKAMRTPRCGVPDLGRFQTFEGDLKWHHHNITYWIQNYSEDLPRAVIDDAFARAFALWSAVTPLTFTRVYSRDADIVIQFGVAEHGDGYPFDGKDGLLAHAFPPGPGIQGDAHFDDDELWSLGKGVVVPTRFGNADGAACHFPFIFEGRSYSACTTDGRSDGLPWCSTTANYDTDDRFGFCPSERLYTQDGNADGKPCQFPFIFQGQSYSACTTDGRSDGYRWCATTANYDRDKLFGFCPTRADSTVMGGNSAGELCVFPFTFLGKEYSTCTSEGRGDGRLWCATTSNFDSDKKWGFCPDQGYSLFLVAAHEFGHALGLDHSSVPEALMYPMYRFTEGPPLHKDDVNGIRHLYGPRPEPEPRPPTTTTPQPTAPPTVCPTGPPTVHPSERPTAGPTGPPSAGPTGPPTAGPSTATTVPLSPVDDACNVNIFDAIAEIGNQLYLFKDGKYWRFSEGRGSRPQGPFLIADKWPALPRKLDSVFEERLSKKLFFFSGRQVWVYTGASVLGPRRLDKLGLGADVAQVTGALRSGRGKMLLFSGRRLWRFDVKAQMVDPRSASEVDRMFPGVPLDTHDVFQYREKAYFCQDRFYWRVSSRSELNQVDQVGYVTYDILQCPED

Compound	metabolised at 8 h, 100 µM [1] [%]	metabolised at 8 h, 100 µM [2] [%]	Activity [3] [%]	Activity [4] [%]	further results
CC[C@H](C)[C@H](NC(=O)[C@H](CCCNC(=N)N)NC(=O)CN)C(=O)NCC(=O)N[C@@H](Cc1ccccc1)C(=O)N[C@@H](CC(C)C)C(=O)N[C@@H](CCCNC(=N)N)C(=O)N[C@H](C(=O)N[C@@H](C)C(=O)N[C@@H](CCCCNC(=O)CCCCCOc1c(/N=N/c2cc(OC)c(/N=N/c3ccc([N+](=O)[O-])cc3)cc2OC)cc2c3c1CCCN3CCC2)C(=O)NCC(=O)NCC(=O)O)[C@@H](C)O	31				
CC[C@H](C)[C@H](NC(=O)[C@H](CCCNC(=N)N)NC(=O)CN)C(=O)NCC(=O)N[C@@H](Cc1ccccc1)C(=O)N[C@@H](CC(C)C)C(=O)N[C@@H](CCCNC(=N)N)C(=O)NC(C(=O)N[C@@H](C)C(=O)N[C@@H](CCCCNC(=O)CCCN(C)c1ccc(/N=N/c2ccc3nc4ccc(N(CC)CC)cc4[n+](-c4ccccc4)c3c2)cc1)C(=O)NCC(=O)NCC(=O)O)[C@@H](C)O (stereo partly drawn) (H-GRIGFLR[ξThr(3R)]AK(X1)GG-OH)	86	26			
CC[C@H](C)[C@H](NC(=O)[C@H](CCCNC(=N)N)NC(=O)CNC(=O)COCCOCCN)C(=O)NCC(=O)N[C@@H](Cc1ccccc1)C(=O)N[C@@H](CC(C)C)C(=O)N[C@@H](CCCNC(=N)N)C(=O)N[C@H](C(=O)N[C@@H](C)C(=O)N[C@@H](CCCCN)C(=O)NCC(=O)NCC(=O)O)[C@@H](C)O (H-[AEEA]GRIGFLRTAKGG-OH)	100	20			
CC[C@H](C)[C@H](NC(=O)[C@H](CCCNC(=N)N)NC(=O)CNC(=O)COCCOCCNC(=O)c1ccc(-c2c3nc(c(-c4ccccc4)c4ccc([nH]4)c(-c4ccccc4)c4nc(c(-c5ccccc5)c5ccc2[nH]5)C=C4)C=C3)cc1)C(=O)NCC(=O)N[C@@H](Cc1ccccc1)C(=O)N[C@@H](CC(C)C)C(=O)N[C@@H](CCCNC(=N)N)C(=O)N[C@H](C(=O)N[C@@H](C)C(=O)N[C@@H](CCCCNC(=O)CCCN(C)c1ccc(/N=N/c2ccc3nc4ccc(N(CC)CC)cc4[n+](-c4ccccc4)c3c2)cc1)C(=O)NCC(=O)NCC(=O)O)[C@@H](C)O ({Benzoyl(4-TriPhPorphyrinyl)-AEEA}-GRIGFLRTAK(X1)GG-OH)			80	100	
CC[C@H](C)[C@H](NC(=O)[C@H](CCCNC(=N)N)NC(=O)CNC(=O)COCCOCCNC(=O)c1ccc(-c2c3nc(c(-c4ccccc4)c4ccc([nH]4)c(-c4ccccc4)c4nc(c(-c5ccccc5)c5ccc2[nH]5)C=C4)C=C3)cc1)C(=O)NCC(=O)N[C@@H](Cc1ccccc1)C(=O)N[C@@H](CC(C)C)C(=O)N[C@@H](CCCNC(=N)N)C(=O)N[C@H](C(=O)N[C@@H](C)C(=O)N[C@@H](CCCCN)C(=O)NCC(=O)NCC(=O)O)[C@@H](C)O ({Benzoyl(4-TriPhPorphyrinyl)-AEEA}-GRIGFLRTAKGG-OH)		3			metabolised at 8 h, 100 µM [5]: 2%
CC[C@H](C)[C@H](NC(=O)[C@H](CCCNC(=N)N)NC(=O)CNC(=O)c1ccc(-c2c3nc(c(-c4ccccc4)c4ccc([nH]4)c(-c4ccccc4)c4nc(c(-c5ccccc5)c5ccc2[nH]5)C=C4)C=C3)cc1)C(=O)NCC(=O)N[C@@H](Cc1ccccc1)C(=O)N[C@@H](CC(C)C)C(=O)N[C@@H](CCCNC(=N)N)C(=O)N[C@H](C(=O)N[C@@H](C)C(=O)N[C@@H](CCCCNC(=O)CCCN(C)c1ccc(/N=N/c2ccc3nc4ccc(N(CC)CC)cc4[n+](-c4ccccc4)c3c2)cc1)C(=O)NCC(=O)NCC(=O)O)[C@@H](C)O ({Benzoyl(4-TriPhPorphyrinyl)}-GRIGFLRTAK(X1)GG-OH)			80	100	
CC[C@H](C)[C@H](NC(=O)[C@H](CCCNC(=N)N)NC(=O)CNC(=O)c1ccc(-c2c3nc(c(-c4ccccc4)c4ccc([nH]4)c(-c4ccccc4)c4nc(c(-c5ccccc5)c5ccc2[nH]5)C=C4)C=C3)cc1)C(=O)NCC(=O)N[C@@H](Cc1ccccc1)C(=O)N[C@@H](CC(C)C)C(=O)N[C@@H](CCCNC(=N)N)C(=O)N[C@H](C(=O)N[C@@H](C)C(=O)N[C@@H](CCCCNC(=O)CCCCCOc1c(/N=N/c2cc(OC)c(/N=N/c3ccc([N+](=O)[O-])cc3)cc2OC)cc2c3c1CCCN3CCC2)C(=O)NCC(=O)NCC(=O)O)[C@@H](C)O ({Benzoyl(4-TriPhPorphyrinyl)}-GRIGFLRTAK(X2)GG-OH)			90	80	Activity [6]: Active
C=Cc1c(C)c2cc3nc(c4c5[nH]c(cc6nc(cc1[nH]2)C(C)=C6CC)c(C)c5C(=O)C4)[C@@H](CCC(=O)NCC(=O)N[C@@H](CCCNC(=N)N)C(=O)N[C@H](C(=O)NCC(=O)N[C@@H](Cc1ccccc1)C(=O)N[C@@H](CC(C)C)C(=O)N[C@@H](CCCNC(=N)N)C(=O)N[C@H](C(=O)N[C@@H](C)C(=O)N[C@@H](CCCCNC(=O)CCCN(C)c1ccc(/N=N/c2ccc4nc5ccc(N(CC)CC)cc5[n+](-c5ccccc5)c4c2)cc1)C(=O)NCC(=O)NCC(=O)O)[C@@H](C)O)[C@@H](C)CC)[C@@H]3C ({Pyropheophorbide(a)}-GRIGFLRTAK(X1)GG-OH)			93	100	
C=Cc1c(C)c2cc3nc(c4c5[nH]c(cc6nc(cc1[nH]2)C(C)=C6CC)c(C)c5C(=O)C4)[C@@H](CCC(=O)NCC(=O)N[C@@H](CCCNC(=N)N)C(=O)N[C@H](C(=O)NCC(=O)N[C@@H](Cc1ccccc1)C(=O)N[C@@H](CC(C)C)C(=O)N[C@@H](CCCNC(=N)N)C(=O)N[C@H](C(=O)N[C@@H](C)C(=O)N[C@@H](CCCCNC(=O)CCCCCOc1c(/N=N/c2cc(OC)c(/N=N/c4ccc([N+](=O)[O-])cc4)cc2OC)cc2c4c1CCCN4CCC2)C(=O)NCC(=O)NCC(=O)O)[C@@H](C)O)[C@@H](C)CC)[C@@H]3C ({Pyropheophorbide(a)}-GRIGFLRTAK(X2)GG-OH)			88	77	
C=Cc1c(C)c2cc3nc(c4c5[nH]c(cc6nc(cc1[nH]2)C(C)=C6CC)c(C)c5C(=O)C4)[C@@H](CCC(=O)NCC(=O)N[C@@H](CCCNC(=N)N)C(=O)N[C@H](C(=O)NCC(=O)N[C@@H](Cc1ccccc1)C(=O)N[C@@H](CC(C)C)C(=O)N[C@@H](CCCNC(=N)N)C(=O)N[C@H](C(=O)N[C@@H](C)C(=O)N[C@@H](CCCCN)C(=O)NCC(=O)NCC(=O)O)[C@@H](C)O)[C@@H](C)CC)[C@@H]3C ({Pyropheophorbide(a)}-GRIGFLRTAKGG-OH)					metabolised at 8 h, 100 µM [5]: 5%
H-GRIGFLRTAKGG-OH	99	26			

Reference: ChEMBL document CHEMBL4219063, “New photodynamic molecular beacons (PMB) as potential cancer-targeted agents in PDT” (Bioorg Med Chem, 2018)
